Source: patent publication US8354414B2, “Substituted bicyclic pyrimidines” (Cephalon, Inc, priority 2006, dated 2013)
Structures can show the parent of a compound that is named as a salt.

Key:
[1] = biological target: T1, CDK5/GST-p25 (Homo sapiens, UniProt Q00535); assay: Inhibition of CDK5/GST-p25 kinase activity (ELISA with time-resolved fluorescence readout); assay type: biochemical; conditions: class symbols
T1 construct: The final construct, encoding for full-length human CDK5; made in house; host or cells: Sf21 insect cells (baculovirus co-infection)
Method: Two recombinant baculoviral constructs were created, one encoding for human CDK5 and the other encoding for human p25 with an amino-terminal glutathione-S-transferase (GST) tag. PCR amplification of full-length CDK5 was performed utilizing human brain cDNA as a template and Pfu Turbo polymerase (Strategene). The PCR product from this reaction was subcloned into the baculoviral expression vector pFASTBAC1 (Gibco/BRL). The final construct, encoding for full-length human CDK5 (base pairs 25-903 of GenBank Accession #NM_004935), is 292 amino acids long with a predicted MW of 33.3 kDa.
For p25, the active truncated form of p35, amino acids 108-307 were PCR-amplified from human fetal brain cDNA (Clontech QUICK-Clone cDNA) using the Advantage 2 PCR system (Clontech). The PCR product was subcloned into the baculoviral transfer vector pFBGSTP (an engineered derivative of the baculoviral transfer vector pFASTBAC1). The final baculoviral construct encodes for base pairs 419-1021 of GenBank Accession #NM_003885, with an amino-terminal GST tag. The expressed GST-p25 is 444 amino acids long with a predicted MW of 50.3 kDa.
The CDK5/GST-p25 complex was generated by coexpression. Sf21 cells were cultured in TNM-FHS media at a density of 1.5×10^6 cells/mL and infected with each recombinant virus at MOI values of 5 (for CDK5) and 10 (for GST-p25). The cells were harvested 40 h after infection. For purification, the 100,000×g supernatant solution was used. Expression was confirmed by running samples on SDS-PAGE, followed by immunoblot analysis utilizing antibodies against CDK5 (anti-CDK5 (268-283); Calbiochem #219449) and p35 (Santa Cruz #sc820). The CDK5/GST-p25 complex was purified by glutathione affinity chromatography.
Compounds were tested for their ability to inhibit the kinase activity of recombinant baculoviral CDK5/GST-p25 using an enzyme-linked immunosorbent assay (ELISA) with time-resolved fluorescence (TRF) readout. Briefly, each 384-well FluoroNunc Maxisorp plate (Cat # 460372) plate was coated with 50 μl/well of 50 μg/ml substrate solution (recombinant GST-Rb(773-928)) in Tris-buffered saline (TBS). The CDK5/GST-p25 assay mixture (total volume=50 μl/well) consisting of 20 mM HEPES (pH 7.2), 10 μM ATP, 10 mM MgCl2, 5 mM EGTA, 25 mM β-glycerophosphate, 0.05% BSA, 2.5% DMSO, and various concentrations of test compound were then added to the assay plate. Enzyme (2 ng/ml CDK5/GST-p25) was added and the reaction was allowed to proceed at 37° C. for 20 minutes. Detection of the phosphorylated product was performed by adding 50 μl/well of phospho-Rb (Ser-780) antibody (Cell Signaling # 9307) diluted 1:10,000 in antibody dilution buffer (0.1% BSA in TBST). After 1-hour incubation at 37° C., 50 μl/well of Eu-Nl labelled anti-rabbit antibody (Wallac # AD0105; 1:50,000 in antibody dilution buffer) was added. Incubation at 37° C. then proceeded for 1 hour, followed by addition of 50 μl enhancement solution (Wallac #1244-105). The plate was gently agitated and after a few minutes, the fluorescence of the resulting solution was measured using a Multilabel Reader (Victor2 Model # 1420-018 or Envision Model # 2100). Inhibition data were analyzed using ActivityBase and IC50 curves were generated using XLFit 3.0.5.

[2] = biological target: T2, His6-GSK-3β (Homo sapiens, UniProt P49841); assay: Inhibition of His6-GSK-3β kinase activity (ELISA-based format, time-resolved fluorescence readout); assay type: biochemical; conditions: class symbols; read-out: GSK3β IC50
T2 construct: made in house; host or cells: Sf21 insect cells (baculovirus)
Text: Full-length GSK-3β was amplified from a sequence-verified I.M.A.G.E. EST acquired from Research Genetics (Invitrogen, Clone ID# CSODB003YJ02). The final sequence-verified cDNA contained the coding region for a NH2-terminal tag, which encoded for 6 histidines and then eight vector-encoded amino acids prior to the start of GSK3β, which contained by # 43-1342 of Genbank Accession # NM_002093, encoding amino acids #2-419. The predicted molecular weight of the tagged, 435 amino acid, full-length protein is 48.5 kDa. The major structural element of this protein is the kinase domain, which is from amino acids #56-340. Recombinant baculoviral DNA was prepared by transposition in E. coli (BAC-TO-BAC system: Invitrogen) and the virus generated and amplified in Sf21 insect cells. A suspension culture of Sf21 cells was infected at an MOI of 0.7 and cell density of 1.5×10^6 cells/mL in Excell 420 serum-free media (JRH BioScience) and harvested 65 h after infection. The 100,000×g supernatant solution was used for purification. Expression was confirmed by running samples on SDS-PAGE, followed by immunoblot analysis utilizing both a Penta-HIS antibody (Qiagen #34660) and a GSK-3α/GSK-3β antibody (Calbiochem #368662, data not shown). The His6-tagged protein was purified to in one step by Ni-NTA affinity chromatography.
Inhibitory effects of compounds on baculoviral GSK-3β kinase activity were evaluated using an ELISA-based format in a 384-well FluoroNunc Maxisorp plate (Cat # 460372) with a time-resolved fluorescence readout. Briefly, each plate was coated with 50 μl/well of 20 μg/ml substrate solution (recombinant GST-Rb) in Tris-buffered saline (TBS). The GSK-3β assay mixture (total volume=50 μl/well) consisting of 50 mM HEPES (pH 7.2), 20 μM ATP, 10 mM MgCl2, 5 mM EGTA, 25 mM β-glycerophosphate, 0.05% BSA, 2.5% DMSO, and various concentrations of test compound were then added to the assay plate. Enzyme (200 ng/ml His6-GSK-3β) was then added and the reaction was allowed to proceed at 37° C. for 30 minutes. Detection of the phosphorylated product was performed by adding 50 μl/well of phospho-Rb (Ser-780) antibody (Cell Signaling # 9307) diluted 1:10,000 in antibody dilution buffer (0.1% BSA in TBST). After 1-hour incubation at 37° C., 50 μl/well of Eu-N1 labelled anti-rabbit antibody (Wallac # AD0105; 1:50,000 in antibody dilution buffer) was added. Incubation at 37° C. then proceeded for 1 hour, followed by addition of 50 μl enhancement solution (Wallac #1244-105). The plate was gently agitated and after a few minutes, the fluorescence of the resulting solution was measured using a Multilabel Reader (Victor2 Model # 1420-018 or Envision Model 2100). Inhibition data were analyzed using ActivityBase and IC50 curves were generated using XLFit 3.0.5.

T1 sequence (Q00535 whole entry): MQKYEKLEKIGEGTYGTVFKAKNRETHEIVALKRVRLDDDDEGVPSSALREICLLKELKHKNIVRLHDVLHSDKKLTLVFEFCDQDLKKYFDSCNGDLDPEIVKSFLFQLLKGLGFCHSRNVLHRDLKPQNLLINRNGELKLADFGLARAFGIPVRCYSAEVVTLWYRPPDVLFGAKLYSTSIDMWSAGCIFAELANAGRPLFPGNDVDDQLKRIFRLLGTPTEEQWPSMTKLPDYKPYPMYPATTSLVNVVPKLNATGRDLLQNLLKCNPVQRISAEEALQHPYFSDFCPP
T1 sequence (Q15078 108-307 partner limits assumed): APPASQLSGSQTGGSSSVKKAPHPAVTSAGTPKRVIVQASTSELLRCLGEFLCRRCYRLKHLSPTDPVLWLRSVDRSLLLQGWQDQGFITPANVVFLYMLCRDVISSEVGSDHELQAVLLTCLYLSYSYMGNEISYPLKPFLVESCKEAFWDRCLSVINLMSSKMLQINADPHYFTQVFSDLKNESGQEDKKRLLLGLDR
T2 sequence (P49841 2-419): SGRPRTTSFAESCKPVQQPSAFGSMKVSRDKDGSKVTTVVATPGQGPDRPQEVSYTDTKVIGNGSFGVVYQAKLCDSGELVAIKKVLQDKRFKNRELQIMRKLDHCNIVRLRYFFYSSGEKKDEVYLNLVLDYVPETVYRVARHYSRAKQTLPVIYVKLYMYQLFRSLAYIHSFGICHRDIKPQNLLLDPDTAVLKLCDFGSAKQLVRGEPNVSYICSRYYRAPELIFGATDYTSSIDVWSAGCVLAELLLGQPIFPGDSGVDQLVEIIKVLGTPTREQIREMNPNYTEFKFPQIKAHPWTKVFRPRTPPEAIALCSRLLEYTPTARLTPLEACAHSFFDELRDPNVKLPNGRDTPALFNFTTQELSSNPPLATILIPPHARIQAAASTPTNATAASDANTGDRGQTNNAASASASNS

IC50 [1] [µM]	IC50 [2] [nM]	Molecule
0.3 to 3	300 to 3000	COc1ccc2c(c1)C(c1ncnc3nn(C4CCCCC4)cc13)C(=O)N2 (stereo not drawn) [Example 52, 3-(2-Cyclohexyl-2H-pyrazolo[3,4-d]pyrimidin-4-yl)-5-methoxy-1,3-dihydro-indol-2-one]
0.3 to 3	300 to 3000	CCOCCn1cc2c(C3C(=O)Nc4ccc(Cl)cc43)nc(NCCCNC)nc2n1 (stereo not drawn) [Example 215, 5-Chloro-3-[2-(2-ethoxy-ethyl)-6-(3-methylamino-propylamino)-2H-pyrazolo [3,4-d]pyrimidin-4-yl]-1,3-dihydro-indol-2-one]
< 0.3	300 to 3000	N#Cc1ccc2c(c1)C(c1nc(NCc3cccnc3)nc3c1CCC3)C(=O)N2 (stereo not drawn) [Example 348, 2-Oxo-3-{2-[(pyridin-3-ylmethyl)-amino]-6,7-dihydro-5H-cyclopentapyrimidin-4-yl}-2,3-dihydro-1H-indole-5-carbonitrile]
> 10	> 10000	O=C1Nc2ccc(Br)cc2C1c1nc(NCc2ccccn2)nc2c1CCC2 (stereo not drawn) [Example 339, 5-Bromo-3-{2-[(pyridin-2-ylmethyl)-amino]-6,7-dihydro-5H-cyclopentapyrimidin-4-yl}-1,3-dihydro-indol-2-one]
> 10	> 10000	CN(C)CCNc1nc2c(c(C3C(=O)Nc4ccc(Cl)cc43)n1)CCC2 (stereo not drawn) [Example 323, 5-Chloro-3-[2-(2-dimethylamino-ethylamino)-6,7-dihydro-5H-cyclopentapyrimidin-4-yl]-1,3-dihydro-indol-2-one]
0.3 to 3	< 300	CNCCCNc1nc(C2C(=O)Nc3ccc(C(F)(F)F)cc32)c2cn(C3CCCC3)nc2n1 (stereo not drawn) [Example 253, 3-[2-Cyclopentyl-6-(3-methylamino-propylamino)-2H-pyrazolo [3,4-d]pyrimidin-4-yl]-5-trifluoromethyl-1,3-dihydro-indol-2-one hydrochloride salt]
> 10	< 300	N#Cc1ccc2c(c1)C(c1nc(N3CCN(CCCc4ccccc4)CC3)nc3nn(C4CCCC4)cc13)C(=O)N2 (stereo not drawn) [Example 128, 3-{2-cyclopentyl-6-[4-(3-phenyl-propyl)-piperazin-1-yl]-2H-pyrazolo[3,4-d]pyrimidin-4-yl}-2-oxo-2,3-dihydro-1H-indole-5-carbonitrile]
> 10	> 10000	O=C1Nc2ccc(Cl)cc2C1c1nc(NCc2ccccn2)nc2c1CCC2 (stereo not drawn) [Example 330, 5-Chloro-3-{2-[(pyridin-2-ylmethyl)-amino]-6,7-dihydro-5H-cyclopentapyrimidin-4-yl}-1,3-dihydro-indol-2-one]
< 0.3	< 300	CCOCCn1cc2c(C3C(=O)Nc4ccc(Cl)cc43)nc(NCCc3cccnc3)nc2n1 (stereo not drawn) [Example 212, 5-Chloro-3-[2-(2-ethoxy-ethyl)-6-(2-pyridin-3-yl-ethylamino)-2H-pyrazolo [3,4-d]pyrimidin-4-yl]-1,3-dihydro-indol-2-one]
> 10	< 300	CCN(CC)CCN(C)c1nc(C2C(=O)Nc3ccc(C#N)cc32)c2cn(C3CCCC3)nc2n1 (stereo not drawn) [Example 121, 3-{2-cyclopentyl-6-[(2-diethylamino-ethyl)-methyl-amino]-2H-pyrazolo [3,4-d]pyrimidin-4-yl}-2-oxo-2,3-dihydro-1H-indole-5-carbonitrile]
< 0.3	< 300	COCCn1cc2c(C3C(=O)Nc4ccc(Br)cc43)nc(NCCC3CCNCC3)nc2n1 (stereo not drawn) [Example 227, 5-Bromo-3-[2-(2-methoxy-ethyl)-6-(2-piperidin-4-yl-ethylamino)-2H-pyrazolo[3,4-d]pyrimidin-4-yl]-1,3-dihydro-indol-2-one]
< 0.3	< 300	N#Cc1ccc2c(c1)C(c1nc(NCc3ccccn3)nc3nn(C4CCCC4)cc13)C(=O)N2 (stereo not drawn) [Example 123, 3-{2-cyclopentyl-6-[(pyridin-2-yl-methyl)amino]-2H-pyrazolo[3,4-d]pyrimidin-4-yl}-2-oxo-2,3-dihydro-1H-indole-5-carbonitrile]
> 10	> 10000	O=C1Nc2ccc(Cl)cc2C1c1nc(NCc2ccc(C(F)(F)F)nc2)nc2c1CCC2 (stereo not drawn) [Example 329, 5-Chloro-3-{2-[(6-trifluoromethyl-pyridin-3-ylmethyl)-amino]-6,7-dihydro-5H-cyclopentapyrimidin-4-yl}-1,3-dihydro-indol-2-one]
< 0.3	300 to 3000	CNCCCNc1nc(C2C(=O)Nc3ccc(Br)cc32)c2cn(C)nc2n1 (stereo not drawn) [Example 306, 5-Bromo-3-[2-methyl-6-(3-methylamino-propylamino)-2H-pyrazolo [3,4-d]pyrimidin-4-yl]-1,3-dihydro-indol-2-one]
	< 300	CCCCNc1nc(C2C(=O)Nc3ccc(C#N)cc32)c2cn(C3CCCC3)nc2n1 (stereo not drawn) [Example 116, 3-(6-butylamino-2-cyclopentyl-2H-pyrazolo [3,4-d]pyrimidin-4-yl)-2-oxo-2,3-dihydro-1H-indole-5-carbonitrile]

Molecule	IC50 [1] [µM]	IC50 [2] [nM]
N#Cc1ccc2c(c1)C(c1nc(N3CCNCC3)nc3c1CCC3)C(=O)N2 (stereo not drawn) [Example 354, 2-Oxo-3-(2-piperazin-1-yl-6,7-dihydro-5H-cyclopentapyrimidin-4-yl)-2,3-dihydro-1H-indole-5-carbonitrile]	< 0.3	300 to 3000
5-Chloro-3-[2-cyclopentyl-6-(2-diethylamino-ethoxy)-2H-pyrazolo [3,4-d]pyrimidin-4-yl]-1,3-dihydro-indol-2-one [Example 141]	> 10	< 300
